Values of other authors, collected in patent US20020016334A1, “Pharmaceutical composition for the treatment of attention deficit hyperactivity disorder (ADHD)” (priority 2000, published 2002).

What was measured:
working memory deficits = conditions: brain-lesioned rats (Levin et al. 1993)
clinical ADHD symptoms = conditions: humans (Levin et al. 1996)
[1] = system: performance on serial choice tasks; conditions: animal studies (Muir et al. 1995)

CN1CCCC1c1cccnc1 (stereo not drawn) [nicotine]
Effect on deficits in working memory (working memory deficits): reverse deficits in working memory
Effect on clinical ADHD symptoms by Clinical Global Impression scale (clinical ADHD symptoms): significantly improves
Effect on performance on serial choice tasks [1]: improves performance
